The record followed here is article PMC7150891, “Mertansine Inhibits mRNA Expression and Enzyme Activities of Cytochrome P450s and Uridine 5′-Diphospho-Glucuronosyltransferases in Human Hepatocytes and Liver Microsomes” (Pharmaceutics, 2020).

Data set [1] addresses T1, UGT1A3 (Homo sapiens, UniProt P35503).
T1 construct: ultrapooled human liver microsomes (0.2 mg/mL); from tissue; host or cells: human liver microsomes (ultrapooled)
T1 sequence (P35503 29-534): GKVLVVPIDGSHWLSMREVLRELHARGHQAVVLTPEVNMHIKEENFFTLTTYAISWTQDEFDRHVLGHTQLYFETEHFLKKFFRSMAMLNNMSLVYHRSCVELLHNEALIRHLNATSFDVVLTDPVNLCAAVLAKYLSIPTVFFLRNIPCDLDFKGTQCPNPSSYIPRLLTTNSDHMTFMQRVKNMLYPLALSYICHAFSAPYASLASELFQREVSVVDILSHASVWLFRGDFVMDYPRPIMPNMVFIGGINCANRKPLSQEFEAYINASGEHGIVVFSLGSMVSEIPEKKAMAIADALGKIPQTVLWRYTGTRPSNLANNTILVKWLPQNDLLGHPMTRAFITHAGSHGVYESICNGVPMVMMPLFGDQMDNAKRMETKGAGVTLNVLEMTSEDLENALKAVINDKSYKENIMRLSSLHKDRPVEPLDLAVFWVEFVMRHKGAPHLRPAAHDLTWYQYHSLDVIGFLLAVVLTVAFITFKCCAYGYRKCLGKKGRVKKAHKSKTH
The data set is described as follows: Inhibition of UGT1A3-catalyzed chenodeoxycholic acid 24-acyl-β-glucuronidation in ultrapooled human liver microsomes. The data set is classed as in vitro ADME. As to the method:
The inhibitory potential of mertansine on UGT1A1, UGT1A3, UGT1A4, UGT1A6, UGT1A9, and UGT2B7 activities was evaluated using liquid chromatography–tandem mass spectrometry (LC-MS/MS) with a cocktail of UGT substrates and ultrapooled human liver microsomes. Each incubation mixture was prepared to a final volume of 100 μL as follows: ultrapooled human liver microsomes (0.2 mg/mL), 5 mM UDPGA, 10 mM magnesium chloride, alamethicin (25 μg/mL), 50 mM Tris buffer (pH 7.4), various concentrations of mertansine in methanol (final concentrations of 0.01–50 μM), and the cocktail sets of UGT enzyme-specific substrates. Two cocktail sets were used: set A contained 0.5 μM SN-38 for UGT1A1, 2 μM chenodeoxycholic acid for UGT1A3, and 0.5 μM trifluoperazine for UGT1A4; and set B contained 1 μM N-acetylserotonin for UGT1A6, 0.2 μM mycophenolic acid for UGT1A9, and 1 μM naloxone for UGT2B7. The reactions were initiated by adding UDPGA and incubated in a shaking water bath for 60 min at 37 °C. […] Next, 50 μL of each supernatant of sets A and B was mixed, and aliquots (5 μL) were analyzed using LC-MS/MS. […]
The LC-MS/MS system was comprised of an Agilent 6495 triple quadrupole mass spectrometer coupled with an Agilent 1290 Infinity system (Agilent Technologies, Wilmington, DE, USA). […] The electrospray ionization (ESI) source settings in both positive and negative ion modes were as follows: gas temperature, 200 °C; gas flow, 14 L/min; nebulizer, 40 psi; sheath gas temperature, 380 °C; sheath gas flow, 11 L/min; capillary voltage, 4500 V; and nozzle voltage, 500 V. Each metabolite was quantified via selected reaction monitoring in the negative ion mode (chenodeoxycholic acid 24-acyl-β-glucuronide, m/z 567.1 to 391.2; mycophenolic acid β-D-glucuronide, m/z 495.0 to 319.0; propofol glucuronide (IS), m/z 353.0 to 177.0) and in the positive ion mode (SN-38 glucuronide, m/z 568.9 to 392.9; trifluoperazine N-β-D-glucuronide, m/z 583.9 to 407.9; N-acetylserotonin β-D-glucuronide, m/z 394.0 to 219.0; naloxone 3-β-D-glucuronide, m/z 503.9 to 309.9; meloxicam (IS), m/z 351.9 to 115.0). […]

Data set [2] concerns CYP2C8 mRNA. Put plainly: CYP2C8 mRNA level in human hepatocytes after 48 h treatment (RT-PCR). Conditions: plated cryopreserved human hepatocytes, IC50, suppression of CYP2C8 mRNA expression, 1.25–2500 nM.

Molecules are shown by their SMILES. Entries after “also recorded” stand apart in the source; their conditions may differ.

Take `COc1cc2cc(c1Cl)N(C)C(=O)CC(OC(=O)C(C)N(C)C(=O)CCS)C1(C)OC1C(C)C1CC(O)(NC(=O)O1)C(OC)C=CC=C(C)C2` (stereo not shown) [mertansine, Mertansine]: the “Inhibition Mode, UGT1A3” value in data set [1] (human liver microsomes, Dixon plot) is “competitively inhibited; also recorded: competitive inhibitor”. Also, in data set [1] (human liver microsomes, chenodeoxycholic acid 0.5–5 µM), the Ki (usually a measure of affinity in units of concentration, obtained from inhibition or displacement) was 4300 nM. Moreover, in data set [1] (ultrapooled human liver microsomes, 2 µM chenodeoxycholic acid (cocktail)), it took 6400 nM to reach half-maximal inhibition (IC50). For the same compound, the IC50 (as a rule, the concentration needed to halve the response being measured) at 48 h in data set [2] (Mean ± SD of three human hepatocyte lots, 48 h) was determined as 32.1 ± 14.9 nM; in data set [2] (human hepatocytes Lot 319, 48 h) it was 48.7 nM; in data set [2] (human hepatocytes Lot 321, 48 h) it was 20 nM; in data set [2] (human hepatocytes Lot 361, 48 h) it was 27.5 nM.
